Data taken from PubChem BioAssay (NCI).
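Results reflect a 48-hour exposure of cells in 96-well plates to compound at five concentrations. Definition used: TGI = concentration required for complete inhibition of growth.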

Key:
Experiment in all cases: DTP human tumour cell line panel, 48 h
MDA-N = system: MDA-N
M14 melanoma = system: M14 melanoma
SN12C renal = system: SN12C renal
CAKI-1 renal = system: CAKI-1 renal
HCC-2998 colon = system: HCC-2998 colon
HCT-15 colon = system: HCT-15 colon
HOP-92 NSCLC = system: HOP-92 NSCLC
SK-MEL-28 melanoma = system: SK-MEL-28 melanoma
UACC-62 melanoma = system: UACC-62 melanoma
SK-OV-3 ovarian = system: SK-OV-3 ovarian
MDA-MB-435 = system: MDA-MB-435
LOX IMVI melanoma = system: LOX IMVI melanoma
PC-3 prostate = system: PC-3 prostate
UACC-257 melanoma = system: UACC-257 melanoma
SW-620 colon = system: SW-620 colon
RXF 393 renal = system: RXF 393 renal
T-47D breast = system: T-47D breast
NCI-H522 lung = system: NCI-H522 lung
OVCAR-5 ovarian = system: OVCAR-5 ovarian
BT-549 breast = system: BT-549 breast
MDA-MB-231 breast = system: MDA-MB-231 breast
HT29 colon = system: HT29 colon
SNB-19 CNS = system: SNB-19 CNS
SNB-75 CNS = system: SNB-75 CNS
TK-10 renal = system: TK-10 renal
MCF7 breast = system: MCF7 breast
MALME-3M melanoma = system: MALME-3M melanoma
ACHN renal = system: ACHN renal
NCI-H226 lung = system: NCI-H226 lung
786-0 renal = system: 786-0 renal
SK-MEL-5 melanoma = system: SK-MEL-5 melanoma
KM12 colon = system: KM12 colon
U251 CNS = system: U251 CNS
NCI/ADR-RES ovarian = system: NCI/ADR-RES ovarian
COLO 205 colon = system: COLO 205 colon
EKVX NSCLC = system: EKVX NSCLC
OVCAR-8 ovarian = system: OVCAR-8 ovarian
MOLT-4 leukemia = system: MOLT-4 leukemia
OVCAR-4 ovarian = system: OVCAR-4 ovarian
A498 renal = system: A498 renal
NCI-H460 lung = system: NCI-H460 lung
SK-MEL-2 melanoma = system: SK-MEL-2 melanoma
HCT-116 colon = system: HCT-116 colon
OVCAR-3 ovarian = system: OVCAR-3 ovarian
SF-539 CNS = system: SF-539 CNS
K-562 leukemia = system: K-562 leukemia
CCRF-CEM leukemia = system: CCRF-CEM leukemia
UO-31 renal = system: UO-31 renal
HS 578T breast = system: HS 578T breast
SF-268 CNS = system: SF-268 CNS
HOP-62 NSCLC = system: HOP-62 NSCLC
A549 NSCLC = system: A549 NSCLC
NCI-H23 lung = system: NCI-H23 lung
DU-145 prostate = system: DU-145 prostate
IGROV1 ovarian = system: IGROV1 ovarian
SR leukemia = system: SR leukemia
RPMI-8226 leukemia = system: RPMI-8226 leukemia
SF-295 CNS = system: SF-295 CNS

O=C1Cc2c(-c3ccccc3)cc(-c3ccc4ccccc4c3)nc2-c2ccccc2N1
TGI (MDA-N): > 100 µM
TGI (M14 melanoma): > 100 µM
TGI (SN12C renal): 43.6 µM
TGI (CAKI-1 renal): 12.5 µM
TGI (HCC-2998 colon): > 100 µM
TGI (HCT-15 colon): > 100 µM
TGI (HOP-92 NSCLC): > 100 µM
TGI (SK-MEL-28 melanoma): > 100 µM
TGI (UACC-62 melanoma): > 100 µM
TGI (SK-OV-3 ovarian): > 100 µM
TGI (MDA-MB-435): > 100 µM
TGI (LOX IMVI melanoma): > 100 µM
TGI (PC-3 prostate): 45.5 µM
TGI (UACC-257 melanoma): > 100 µM
TGI (SW-620 colon): > 100 µM
TGI (RXF 393 renal): 13.1 µM
TGI (T-47D breast): > 100 µM
TGI (NCI-H522 lung): 26.1 µM
TGI (OVCAR-5 ovarian): > 100 µM
TGI (BT-549 breast): > 100 µM
TGI (MDA-MB-231 breast): 69.6 µM
TGI (HT29 colon): 15.9 µM
TGI (SNB-19 CNS): > 100 µM
TGI (SNB-75 CNS): 5.38 µM
TGI (TK-10 renal): 29.4 µM
TGI (MCF7 breast): > 100 µM
TGI (MALME-3M melanoma): 31.9 µM
TGI (ACHN renal): > 100 µM
TGI (NCI-H226 lung): > 100 µM
TGI (786-0 renal): > 100 µM
TGI (SK-MEL-5 melanoma): > 100 µM
TGI (KM12 colon): 28.3 µM
TGI (U251 CNS): > 100 µM
TGI (NCI/ADR-RES ovarian): > 100 µM
TGI (COLO 205 colon): > 100 µM
TGI (EKVX NSCLC): 76.4 µM
TGI (OVCAR-8 ovarian): 4.9 µM
TGI (MOLT-4 leukemia): > 100 µM
TGI (OVCAR-4 ovarian): > 100 µM
TGI (A498 renal): 49.6 µM
TGI (NCI-H460 lung): 87.6 µM
TGI (SK-MEL-2 melanoma): > 100 µM
TGI (HCT-116 colon): > 100 µM
TGI (OVCAR-3 ovarian): 27.6 µM
TGI (SF-539 CNS): > 100 µM
TGI (K-562 leukemia): 9.41 µM
TGI (CCRF-CEM leukemia): > 100 µM
TGI (UO-31 renal): > 100 µM
TGI (HS 578T breast): 7.77 µM
TGI (SF-268 CNS): 29.9 µM
TGI (HOP-62 NSCLC): > 100 µM
TGI (A549 NSCLC): > 100 µM
TGI (NCI-H23 lung): > 100 µM
TGI (DU-145 prostate): > 100 µM
TGI (IGROV1 ovarian): 11.9 µM
TGI (SR leukemia): > 100 µM
TGI (RPMI-8226 leukemia): > 100 µM
TGI (SF-295 CNS): > 100 µM

COCN1C(=O)[C@@H]2CCCN2C(=O)c2cc(Cl)ccc21
TGI (MDA-N): > 100 µM
TGI (M14 melanoma): > 100 µM
TGI (SN12C renal): > 100 µM
TGI (CAKI-1 renal): > 100 µM
TGI (HCC-2998 colon): > 100 µM
TGI (HCT-15 colon): > 100 µM
TGI (HOP-92 NSCLC): > 100 µM
TGI (SK-MEL-28 melanoma): > 100 µM
TGI (UACC-62 melanoma): > 100 µM
TGI (SK-OV-3 ovarian): > 100 µM
TGI (MDA-MB-435): > 100 µM
TGI (LOX IMVI melanoma): > 100 µM
TGI (PC-3 prostate): > 100 µM
TGI (UACC-257 melanoma): > 100 µM
TGI (SW-620 colon): > 100 µM
TGI (RXF 393 renal): > 100 µM
TGI (T-47D breast): > 100 µM
TGI (NCI-H522 lung): > 100 µM
TGI (OVCAR-5 ovarian): > 100 µM
TGI (BT-549 breast): > 100 µM
TGI (MDA-MB-231 breast): > 100 µM
TGI (HT29 colon): > 100 µM
TGI (SNB-19 CNS): > 100 µM
TGI (SNB-75 CNS): > 100 µM
TGI (TK-10 renal): > 100 µM
TGI (MCF7 breast): > 100 µM
TGI (MALME-3M melanoma): > 100 µM
TGI (ACHN renal): > 100 µM
TGI (786-0 renal): > 100 µM
TGI (SK-MEL-5 melanoma): > 100 µM
TGI (KM12 colon): > 100 µM
TGI (U251 CNS): > 100 µM
TGI (NCI/ADR-RES ovarian): > 100 µM
TGI (COLO 205 colon): > 100 µM
TGI (EKVX NSCLC): > 100 µM
TGI (OVCAR-8 ovarian): > 100 µM
TGI (MOLT-4 leukemia): > 100 µM
TGI (OVCAR-4 ovarian): > 100 µM
TGI (A498 renal): > 100 µM
TGI (NCI-H460 lung): > 100 µM
TGI (SK-MEL-2 melanoma): > 100 µM
TGI (HCT-116 colon): > 100 µM
TGI (K-562 leukemia): > 100 µM
TGI (UO-31 renal): > 100 µM
TGI (HS 578T breast): > 100 µM
TGI (SF-268 CNS): > 100 µM
TGI (HOP-62 NSCLC): > 100 µM
TGI (A549 NSCLC): > 100 µM
TGI (NCI-H23 lung): > 100 µM
TGI (DU-145 prostate): > 100 µM
TGI (IGROV1 ovarian): > 100 µM
TGI (SR leukemia): > 100 µM
TGI (RPMI-8226 leukemia): > 100 µM
TGI (SF-295 CNS): > 100 µM
